Test results from patent US20080214399A1, “Enhanced amino acid formulations” (priority 2006, published 2008).

Tested on: cotton cotyledons
Assay: Cotton cotyledon bioassay: reduction of CPPU-induced ethylene production
Type: in vivo, cotton (variety SG 105)
Conditions: CPPU (200 μM) alone, reference = 1.00
Procedure: A cotton bioassay system has been used in the laboratory to study the effect of formulations on AVG performance. […] One spray application of CPPU (forchlorfenuron) is made to the bottom (abaxial) and AVG was subsequently applied to the top (adaxial) surface of the cotyledons. […] Water was used as the carrier. Further dilutions were prepared as needed for foliar applications. All the data was subject to an analysis of variance, and the mean separations were determined with Duncan's new multiple range test at α=0.05. The present invention may be illustrated by the following representative examples: […]

SMILES: O=C(Nc1ccccc1)Nc1ccnc(Cl)c1 [CPPU, forchlorfenuron]
- Reduction as compared to CPPU-treated: 1.00
